Tested on: 422866-222-R5-J1-PDC complex spheroids viability
Assay: Anticancer human tumor 422866-222-R5-J1-PDC patient-derived pancreatic adenocarcinoma cell line growth inhibition [RAS]
Settings: for IC50: curve of first compound; for viability, T/C: stronger effect = lower value
How it was run: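 Multi-cell-type spheroids: tumor cells plus HUVEC endothelial cells and mesenchymal stem cells. RAS-pathway inhibitors were combined with targeted agents, each dosed in half-log steps down from clinical Cmax, or from 10 microM when Cmax was unknown.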
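Also: spheroids exposed to compounds for 7 days.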
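For viability, T/C in this document: 100% = DMSO vehicle control viability.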

SMILES: CCN1CCN(Cc2ccc(Nc3ncc(F)c(-c4cc(F)c5nc(C)n(C(C)C)c5c4)n3)nc2)CC1 + CCn1c(-c2cccnc2C(C)OC)c2c3cc(ccc31)N1CCOC(CC(NC(=O)C(C(C)C)N(C)C(=O)C3(F)CCN(C(=O)C#CC(C)(C)N(C)C)CC3)C(=O)N3CCCC(N3)C(=O)OCC(C)(C)C2)C1
- IC50 (second compound 0.000949 µM): < 3.16 nM
- IC50 (second compound 0.003 µM): < 3.16 nM
- IC50 (second compound 0.00949 µM): < 3.16 nM
- IC50 (second compound 0.03 µM): < 3.16 nM
- IC50 (second compound 0.0949 µM): < 3.16 nM
- IC50 (second compound 0.3 µM): < 3.16 nM
- viability, T/C (second compound 0.000949 µM, first compound 0.00316 µM): 30.8%
- viability, T/C (second compound 0.000949 µM, first compound 0.01 µM): 26.9%
- viability, T/C (second compound 0.000949 µM, first compound 0.0316 µM): 27.2%
- viability, T/C (second compound 0.000949 µM, first compound 0.1 µM): 25.8%
- viability, T/C (second compound 0.000949 µM, first compound 0.316 µM): 30%
- viability, T/C (second compound 0.000949 µM, first compound 1 µM): 39%
- viability, T/C (second compound 0.003 µM, first compound 0.00316 µM): 23.8%
- viability, T/C (second compound 0.003 µM, first compound 0.01 µM): 24.9%
- viability, T/C (second compound 0.003 µM, first compound 0.0316 µM): 23.7%
- viability, T/C (second compound 0.003 µM, first compound 0.1 µM): 20.3%
- viability, T/C (second compound 0.003 µM, first compound 0.316 µM): 26.3%
- viability, T/C (second compound 0.003 µM, first compound 1 µM): 37.5%
- viability, T/C (second compound 0.00949 µM, first compound 0.00316 µM): 25%
- viability, T/C (second compound 0.00949 µM, first compound 0.01 µM): 21.9%
- viability, T/C (second compound 0.00949 µM, first compound 0.0316 µM): 20%
- viability, T/C (second compound 0.00949 µM, first compound 0.1 µM): 21.5%
- viability, T/C (second compound 0.00949 µM, first compound 0.316 µM): 25.3%
- viability, T/C (second compound 0.00949 µM, first compound 1 µM): 37.5%
- viability, T/C (second compound 0.03 µM, first compound 0.00316 µM): 20.6%
- viability, T/C (second compound 0.03 µM, first compound 0.01 µM): 19.9%
- viability, T/C (second compound 0.03 µM, first compound 0.0316 µM): 16.8%
- viability, T/C (second compound 0.03 µM, first compound 0.1 µM): 19.1%
- viability, T/C (second compound 0.03 µM, first compound 0.316 µM): 26.7%
- viability, T/C (second compound 0.03 µM, first compound 1 µM): 40.3%
- viability, T/C (second compound 0.0949 µM, first compound 0.00316 µM): 18.5%
- viability, T/C (second compound 0.0949 µM, first compound 0.01 µM): 21.1%
- viability, T/C (second compound 0.0949 µM, first compound 0.0316 µM): 19.7%
- viability, T/C (second compound 0.0949 µM, first compound 0.1 µM): 18.6%
- viability, T/C (second compound 0.0949 µM, first compound 0.316 µM): 27.5%
- viability, T/C (second compound 0.0949 µM, first compound 1 µM): 37.2%
- viability, T/C (second compound 0.3 µM, first compound 0.00316 µM): 19.9%
- viability, T/C (second compound 0.3 µM, first compound 0.01 µM): 18.8%
- viability, T/C (second compound 0.3 µM, first compound 0.0316 µM): 18.8%
- viability, T/C (second compound 0.3 µM, first compound 0.1 µM): 17.1%
- viability, T/C (second compound 0.3 µM, first compound 0.316 µM): 24%
- viability, T/C (second compound 0.3 µM, first compound 1 µM): 34.9%

Reference: PubChem BioAssay AID2060901 (Molecular Pharmacology Branch, DTP, NCI, 2025)
